Results as given in patent US7947854B2, “Bis-cationic compounds and use thereof” (The University of Sydney, priority 2003, dated 2011).
Where two headings read alike, the source gives them in different places.

Columns and labels:
[1] = test system: secreted phospholipase B (PLB activity); test: Radiometric assay, secreted PLB activity; type: biochemical, Cryptococcus neoformans H99
Method: (§1) Fungal isolates and media. […] Isolate H99 was kindly supplied by Dr. Gary Cox (Duke University Medical Center, Durham, N.C., USA), and subcultured onto Sabouraud dextrose agar (SDA) at 30° C.
(§2) Preparation of supernatants containing secreted phospholipase activities. Isolate H99 was grown to confluence on SDA in 16 cm diameter Petri dishes for 72 h at 30° C. in air. Cells scraped from 10-20 dishes were washed sequentially with isotonic saline and imidazole buffer (10 mM imidazole, 2 mM CaCl2, 2 mM Mg Cl2, 56 mM D-Glucose, made up in isotonic saline, pH 5.5), resuspended in a volume of this buffer of about 10% of the cell volume, and incubated for 24 h at 37° C. The cell-free supernatant was separated by centrifugation as previously described and stored at −70° C.
Radiometric assay method for phospholipases. Enzyme activities were measured as described previously in a final volume of 125 μL at 37° C. For the determination of secreted PLB activity, carrier dipalmitoyl phosphatidylcholine (DPPC, final concentration 800 μM) and 1,2-di[1-^14C] palmitoyl phosphatidylcholine (20,000 dpm) were dried under nitrogen and suspended in 125 mM imidazole acetate buffer (assay buffer, pH 4.0) by sonication using a Branson 450 sonifier. The reaction time was 22 min, using 1 μg total protein and PLB activity was determined by the rate of decrease of the radiolabelled PC substrate, with appearance of the label in free fatty acid. This assay also simultaneously allows for the determination of phospholipase A, C and D activities. These activities were measured by the appearance of radiolabel from PC in Lyso PC, diacylglycerol and phosphatidic acid, respectively.
(§3) All reactions were terminated by adding 0.5 mL of chloroform:methanol (2:1 v/v). The reaction products were extracted by the method as disclosed in Bligh, E. C. and W. J. Dyer. 1959 ‘A rapid method of total lipid extraction and purification.’ Can. J. Biochem. Physiol. 37:911-917, separated by TLC and quantified as previously described. In the case of PLC activity, the TLC plates were developed in petroleum ether (BP 60-80° C.): diethyl ether: acetic acid (90:15:1, v/v/v) instead of chloroform:methanol:water (65:25:4, v/v/v).
(§4) Preparation of inhibitors and use in assays. The following compounds were tested (for structures, see FIG. 2): compound 1, 1,12-bis(tributylphosphonium)dodecane dibromide (Fluka AG, Buchs, Switzerland); compound 2, 1,10-bis(tributylammonium)-decane dibromide; compound 3, 1,12-bis(tributylammonium)do-decane dibromide (both synthesised in-house); compound 4, 1,10-bis(trimethylammonium)decane dibromide [“decamethonium”] (Sigma, St. Louis Mo., USA). All compounds were prepared as stock solutions of 700 μM in assay buffer containing 5 mM EDTA, which was then diluted serially with buffer to obtain solutions of 70, 7, 0.7 and 0.07 μM. In each assay, 45 μL of these solutions was used, and the final volume of 125 μL was made up of substrate, enzyme and buffer. The radiometric assay was carried out as above. Inhibition was calculated as the percent of substrates (DPPC or Lyso-PC) remaining in the case of PLB and LPL activities, or of DPPC produced, in the case of the LPTA activity. The amounts converted, or produced, in the inhibitor-free control were normalised to 100%, and the inhibition calculated against it. All assays were done in triplicate.
(§5) Under these conditions only PLB, LPL and LPTA activities (both secreted and cell-associated) were measured. Initially, compounds deemed to be potential inhibitors were assayed at 25 and 250 μM. Those showing some inhibition were then also assayed at 2.5 and 0.25 μM.

[2] = test system: secreted phospholipase B (LPL/LPTA activities); test: Radiometric assay, secreted LPL and LPTA activities (Lyso assay); type: biochemical, Cryptococcus neoformans H99
Method: as §1, §2
Secreted LPL and LPTA activities were measured simultaneously in a reaction mixture containing 1-[^14C]palmitoyl lyso-PC (25,000 dpm) and carrier lyso-PC (final concentration 200 μM) in assay buffer. The reaction time was […] with 1 μg of total protein and LPL activity was measured by the rate of loss of 1-[^14C]palmitoyl lyso-PC with release of radiolabelled fatty acids. LPTA activity was estimated from the rate of formation of radiolabelled PC.
as §3, §4, §5

[3] = test system: Candida albicans ATCC 10231; test: Antifungal susceptibility testing, microdilution MIC; type: cell-based; settings: Candida albicans
Method: (§6) Antifungal susceptibility testing. The antifingal activity of the compounds was measured by a standard microdilution method. […] The fungal strains tested included Cryptococcus neoformans H99, Cryptococcus neoformans ATCC 90112 and Candida albicans ATCC 10231. All tests were performed in duplicate.
(§7) A range of cationic compounds were assayed for antifungal activity in a standardised serial dilution sensitivity test against C. neoformans ([…]) and C. Albicans (ATCC 10231).

[4] = test system: Cryptococcus neoformans ATCC 90112; test: as above; type: cell-based; settings: Cryptococcus neoformans
Method: as §6, §7

erythrocyte = type: cell-based; settings: 37° C., 1 h
Method: Human blood was collected in 10 mL Vacutainer tubes containing potassium-EDTA as anticoagulant. The blood from each vacutainer was transferred to a 50 mL centrifuge tube and the cells washed three times with calcium- and magnesium-free phosphate buffered saline (PBS) (Gibco) by centrifugation at 2000×g for 15 min. The third supernatant was clear and colourless. Cells were stored in PBS for up to two weeks. The cell suspension in PBS (0.5 mL) was mixed with a stock solution of test substance (0.5 mL) at the appropriate concentration (final erythrocyte concentration of approx. 0.5×10^9 per mL). The mixtures were incubated at 37° C. for 1 h with gentle shaking, then centrifuged at 2000×g for 10 min. The supernatant was diluted 10-fold with PBS and the optical density measured at 540 nm. The values for 0% and 100% lysis were determined by incubating cells with PBS or 0.1% Triton X-100 (in water), respectively. Assays were carried out in triplicate.

[5] = ATCC10231, Table 7, read-out: MIC (μM) C. alb. (10231)
[6] = ATCC90112, Table 7, read-out: MIC (μM) Crypto. (ATCC 90112)

`CCCCCCCCCCCCCCCC[P+](CCCC)(CCCC)CCCC` was tested, and the “PLB assay (% inhibition)” value ([1]; 0.25 μM) was 0%, the “PLB assay (% inhibition)” value ([1]; 2.5 μM) was 15% and the “PLB assay (% inhibition)” value ([1]; 25 μM) was 37%. The “PLB assay (% inhibition)” value ([1]; 250 μM) was 92%, the “Lyso assay (% inhibition) LPL” value ([2]; 0.25 μM) was 0% and the “Lyso assay (% inhibition) LPTA” value ([2]; 0.25 μM) was 0%. For the same compound, the “Lyso assay (% inhibition) LPL” value ([2]; 2.5 μM) was 0%, the “Lyso assay (% inhibition) LPTA” value ([2]; 2.5 μM) was 0% and the “Lyso assay (% inhibition) LPL” value ([2]; 25 μM) was 15%. For the same compound, the “Lyso assay (% inhibition) LPTA” value ([2]; 25 μM) was 5%, the “Lyso assay (% inhibition) LPL” value ([2]; 250 μM) was 98% and the “Lyso assay (% inhibition) LPTA” value ([2]; 250 μM) was 95%. For the same compound, the MIC [3, 5] was 2.2 µM, the MIC [4, 6] was at most 0.6 µM and the “Haemolytic assay (%)” value (erythrocyte; 3.5 μM) was 2.5%. The “Haemolytic assay (%)” value (erythrocyte; 35 μM) was 4%, the “Haemolytic assay (%)” value (erythrocyte; 88 μM) was 7% and the “Haemolytic assay (%)” value (erythrocyte; 175 μM) was 32%. For the same compound, the “Haemolytic assay (%)” value (erythrocyte; 350 μM) was 100%.
For `CCCC[N+]1(CCCCCCCCCCCC[N+]2(CCCC)CCCC2)CCCC1` [C12-bis-N-butyl-pyro. dibromide, 1,12-Bis-(N-butylpyrrolidinium)dodecane dibromide], the MIC [3, 5] was 88 µM, the MIC [4, 6] was 88 µM and the “Haemolytic assay (%)” value (erythrocyte; 3.5 μM) was 350 μM = 0% 175 μM = 0% 88 μM = 0% 35 μM = 0% 3.5 μM = 0%. For the same compound, the “Haemolytic assay (%)” value (erythrocyte; 35 μM) was 350 μM = 0% 175 μM = 0% 88 μM = 0% 35 μM = 0% 3.5 μM = 0%, the “Haemolytic assay (%)” value (erythrocyte; 88 μM) was 350 μM = 0% 175 μM = 0% 88 μM = 0% 35 μM = 0% 3.5 μM = 0% and the “Haemolytic assay (%)” value (erythrocyte; 175 μM) was 350 μM = 0% 175 μM = 0% 88 μM = 0% 35 μM = 0% 3.5 μM = 0%. The “Haemolytic assay (%)” value (erythrocyte; 350 μM) was 350 μM = 0% 175 μM = 0% 88 μM = 0% 35 μM = 0% 3.5 μM = 0%.
`C[N+](C)(C)CCCCCCCCCCCC[N+](C)(C)C` [1,12-Bis-(trimethylammonium)dodecane dibromide] was tested, and the “PLB assay (% inhibition)” value ([1]; 25 μM) was 2%, the “PLB assay (% inhibition)” value ([1]; 250 μM) was 3% and the “Lyso assay (% inhibition) LPL” value ([2]; 25 μM) was 250 μM = 0% 25 μM = 0% 2.5 μM = n.d. 0.25 μM = n.d. The “Lyso assay (% inhibition) LPTA” value ([2]; 25 μM) was 4%, the “Lyso assay (% inhibition) LPL” value ([2]; 250 μM) was 250 μM = 0% 25 μM = 0% 2.5 μM = n.d. 0.25 μM = n.d and the “Lyso assay (% inhibition) LPTA” value ([2]; 250 μM) was 5%. For the same compound, the MIC ([3]; ATCC10231, read-out: MIC (μM) C. alb. (10231)) was 175 µM, the MIC ([4]; ATCC90112, read-out: MIC (μM) Crypto. (ATCC 90112)) was 175 µM and the “Haemolytic assay (%)” value (erythrocyte; 3.5 μM) was 350 μM = 0% 175 μM = 0% 88 μM = 0% 35 μM = 0% 3.5 μM = 0%. For the same compound, the “Haemolytic assay (%)” value (erythrocyte; 35 μM) was 350 μM = 0% 175 μM = 0% 88 μM = 0% 35 μM = 0% 3.5 μM = 0%, the “Haemolytic assay (%)” value (erythrocyte; 88 μM) was 350 μM = 0% 175 μM = 0% 88 μM = 0% 35 μM = 0% 3.5 μM = 0% and the “Haemolytic assay (%)” value (erythrocyte; 175 μM) was 350 μM = 0% 175 μM = 0% 88 μM = 0% 35 μM = 0% 3.5 μM = 0%. The “Haemolytic assay (%)” value (erythrocyte; 350 μM) was 350 μM = 0% 175 μM = 0% 88 μM = 0% 35 μM = 0% 3.5 μM = 0%.
For `C(CCCCCC[N+]12CCC(CC1)CC2)CCCCC[N+]12CCC(CC1)CC2` [1,12-Bis-(quinuclidinium)dodecane dibromide], the “PLB assay (% inhibition)” value ([1]; 0.25 μM) was 0%, the “PLB assay (% inhibition)” value ([1]; 2.5 μM) was 0% and the “PLB assay (% inhibition)” value ([1]; 25 μM) was 0%. The “PLB assay (% inhibition)” value ([1]; 250 μM) was 5%, the “Lyso assay (% inhibition) LPL” value ([2]; 0.25 μM) was 250 μM = 0% 25 μM = 0% 2.5 μM = 0% 0.25 μM = 0% and the “Lyso assay (% inhibition) LPTA” value ([2]; 0.25 μM) was 250 μM = 0% 25 μM = 0% 2.5 μM = 0% 0.25 μM = 0%. The “Lyso assay (% inhibition) LPL” value ([2]; 2.5 μM) was 250 μM = 0% 25 μM = 0% 2.5 μM = 0% 0.25 μM = 0%, the “Lyso assay (% inhibition) LPTA” value ([2]; 2.5 μM) was 250 μM = 0% 25 μM = 0% 2.5 μM = 0% 0.25 μM = 0% and the “Lyso assay (% inhibition) LPL” value ([2]; 25 μM) was 250 μM = 0% 25 μM = 0% 2.5 μM = 0% 0.25 μM = 0%. For the same compound, the “Lyso assay (% inhibition) LPTA” value ([2]; 25 μM) was 250 μM = 0% 25 μM = 0% 2.5 μM = 0% 0.25 μM = 0%, the “Lyso assay (% inhibition) LPL” value ([2]; 250 μM) was 250 μM = 0% 25 μM = 0% 2.5 μM = 0% 0.25 μM = 0% and the “Lyso assay (% inhibition) LPTA” value ([2]; 250 μM) was 250 μM = 0% 25 μM = 0% 2.5 μM = 0% 0.25 μM = 0%. The MIC [3, 5] was at least 350 µM and the MIC [4, 6] was 350 µM.
`CCC[N+](CCC)(CCC)CCCCCCCCCCCC[N+](CCC)(CCC)CCC` [1,12-Bis-(tripropylammonium)dodecane dibromide] was tested, and the “PLB assay (% inhibition)” value ([1]; 0.25 μM) was 5%, the “PLB assay (% inhibition)” value ([1]; 2.5 μM) was 6% and the “PLB assay (% inhibition)” value ([1]; 6.7 μM) was 42%. The “PLB assay (% inhibition)” value ([1]; 12.5 μM) was 68%, the “PLB assay (% inhibition)” value ([1]; 25 μM) was 71% and the “PLB assay (% inhibition)” value ([1]; 250 μM) was 80%. The “Lyso assay (% inhibition) LPL” value ([2]; 0.25 μM) was 0%, the “Lyso assay (% inhibition) LPTA” value ([2]; 0.25 μM) was 0% and the “Lyso assay (% inhibition) LPL” value ([2]; 2.5 μM) was 0%. For the same compound, the “Lyso assay (% inhibition) LPTA” value ([2]; 2.5 μM) was 0%, the “Lyso assay (% inhibition) LPL” value ([2]; 25 μM) was 5% and the “Lyso assay (% inhibition) LPTA” value ([2]; 25 μM) was 20%. The “Lyso assay (% inhibition) LPL” value ([2]; 250 μM) was 8%, the “Lyso assay (% inhibition) LPTA” value ([2]; 250 μM) was 10% and the MIC [3, 5] was 10 µM. The MIC [4, 6] was 5.5 µM.
